This note sets out measurements from patent US20030199431A1, “Modified peptide nucleic acid (PNA) molecules” (priority 1999, published 2003).

Assay [1] relates to E. coli K12. The experiment in a line: Bacterial growth inhibition with PNA 249 (without peptide, FtsZ) and peptide 250, 100% Mueller-Hinton broth (Table 18). The format is cell-based, Escherichia coli. To be noted: for Growth inhibition effect: low concentration end.
Assay [2] relates to test culture. Type of assay: cell-based. As to conditions: 37° C., 16 hours.

H-ado-TTC AAA CAT AGT-NH2 [PNA 249]: in assay [1], the Growth inhibition effect entry is “neither 249 nor 250 alone nor 249 and 250 together show any useful effect”. “H-KFFKFFKFFK-ado-TGA CTA GAT GAG-NH2 [PNA 136]”: in assay [2], the Growth inhibition result is “No growth inhibition was detected”. Consider “H-CG-KLAKALKKLL-NH2 (H-CGKLAKALKKLL-NH2) [PNA 250, peptide alone, also used for PNA 174]”, for which, in assay [1], the “Peptide concentration at which the peptide alone may show growth inhibition effect” value is listed as “above 2500 nM”; the Growth inhibition effect entry was “neither 249 nor 250 alone nor 249 and 250 together show any useful effect”.
